Experimental data from patent publication US20250144067A1, “PERSONALIZED STARVATION THERAPY FOR CANCER” (Faeth Therapeutics, Inc., priority 2021, published 2025).
Counter-ions that a name gives are not always drawn. Like-named read-outs stand apart in the source and are kept apart here.

Tests used:
[1] = system: NCI-H292 lung cancer cells; assay: FDA drug screening, complete media vs cholesterol-free media without statin (TABLE 1); type: cell-based, human
[2] = system: NCI-H292 lung cancer cells; assay: FDA drug screening, complete media vs cholesterol-free media with simvastatin (TABLE 2); type: cell-based, human
[3] = Complete minus Cholesterol-free, >0 enhanced anti-cancer activity, about 0 neutral, <0 antagonist
[4] = NCI-H292 cells, cholesterol-free media without statin
[5] = NCI-H292 cells, FDA drug library screen, cholesterol-free media with simvastatin 0.04 μM
[6] = NCI-H292 cells, FDA drug library screen, complete media
[7] = complete media vs cholesterol-free media + simvastatin (0.04 μM), >0 enhanced anti-cancer activity, about 0 neutral, <0 antagonist
[8] = Complete minus Cholesterol-free, greater than 0 enhanced anti-cancer activity, about 0 neutral, below 0 antagonists
[9] = NCI-H292 cells in cholesterol-free media without statin
[10] = NCI-H292 cells in complete media
[11] = NCI-H292 cells, cholesterol-free media with simvastatin 0.04 μM, FDA drug library screen (TABLE 2)
[12] = NCI-H292 cells, complete media, FDA drug library screen (TABLE 2)
[13] = complete media minus cholesterol-free media + simvastatin (0.04 μM), >0 enhanced anti-cancer activity, about 0 neutral, <0 antagonist
[14] = NCI-H292 cells, cholesterol-free media without statin, FDA drug library screen
[15] = NCI-H292 cells, complete media, FDA drug library screen
[16] = complete vs cholesterol-free media, >0 enhanced anti-cancer activity, about 0 neutral, <0 antagonist
[17] = complete media minus cholesterol-free media + simvastatin, >0 enhanced anti-cancer activity, about 0 neutral, <0 antagonist
[18] = NCI-H292 cells, drug in cholesterol-free media with simvastatin 0.04 μM
[19] = NCI-H292 cells, drug in complete media
[20] = NCI-H292 cells, FDA library drug in cholesterol-free media with simvastatin 0.04 μM
[21] = NCI-H292 cells, FDA library drug in complete media
[22] = Complete minus Cholesterol-free, […]
[23] = complete media vs cholesterol-free media + simvastatin (0.04 μM), […]
[24] = Complete minus Cholesterol-free, greater than 0 enhanced anti-cancer activity, about 0 neutral, below 0 antagonist
[25] = NCI-H292 cells, FDA drug library screen, cholesterol-free media without statin
[26] = NCI-H292 cells, cholesterol-free media with simvastatin 0.04 μM, cell growth value in FDA drug screen
[27] = NCI-H292 cells, complete media, cell growth value in FDA drug screen

Work on CN(C)CCCN1c2ccccc2CCc2ccccc21 [Imipramine (hydrochloride)] yielded a Difference [1, 3] of −0.21, a Cholesterol-free [1, 4] of 1.052 and a Complete ([1]; NCI-H292 cells, complete media) of 0.8395. The “Cholesterol-free media + simvastatin (0.04 μM)” value [2, 5] was 0.9417, the “Complete Media” value [2, 6] was 0.8694 and the Difference [2, 7] was −0.07.

In the case of CC(C)Cn1cnc2c(N)nc3ccccc3c21 [Imiquimod (hydrochloride)], the Cholesterol-free [1] is reported as 0.8815, the Complete [1] is reported as 1.16 and the Difference [1] is reported as 0.28. The “Cholesterol-free media + simvastatin (0.04 μM)” value [2] was 1.323, the “Complete Media” value [2] was 1.16 and the Difference [2] was −0.16.

In the case of CC(C)Cn1cnc2c(N)nc3ccccc3c21 [Imiquimod], the Cholesterol-free [1] is reported as 0.6962, the Complete [1] is reported as 1.326 and the Difference [1] is reported as 0.63. The “Cholesterol-free media + simvastatin (0.04 μM)” value [2] was 1.141, the “Complete Media” value [2] was 0.8713 and the Difference [2] was −0.27.

CCCN1CC(c2ccc(S(C)(=O)=O)cc2)=C(c2ccc(C)cc2)C1=O [Imrecoxib] gave a Difference [1, 8] of −0.54, a Cholesterol-free [1, 9] of 1.763 and a Complete [1, 10] of 1.221. For the same compound, the “Cholesterol-free media + simvastatin (0.04 μM)” value [2, 11] was 1.183, the “Complete Media” value [2, 12] was 1.141 and the Difference [2, 13] was −0.04.

With CCc1cc2c(cc1CC)CC(NC[C@H](O)c1ccc(O)c3[nH]c(=O)ccc13)C2 [Indacaterol] the Cholesterol-free [1, 14] was 0.6776, the Complete [1, 15] was 1.376 and the Difference [1, 16] was 0.70. For the same compound, the “Cholesterol-free media + simvastatin (0.04 μM)” value [2, 5] was 0.7696, the “Complete Media” value [2, 6] was 1.1 and the Difference [2, 17] was 0.33.

In the case of CC1Cc2ccccc2N1NC(=O)c1ccc(Cl)c(S(N)(=O)=O)c1 (stereo not drawn) [Indapamide], the Difference [1, 8] is reported as −0.63, the Cholesterol-free [1, 9] is reported as 1.388 and the Complete [1, 10] is reported as 0.7593. The “Cholesterol-free media + simvastatin (0.04 μM)” value [2, 18] was 1.217, the “Complete Media” value [2, 19] was 0.9676 and the Difference [2, 7] was −0.25.

O=C1Nc2ccccc2/C1=C1/Nc2ccccc2C1=O [Indirubin] gave a Difference [1, 3] of −0.04, a Cholesterol-free [1, 14] of 0.7727 and a Complete [1, 15] of 0.7337. For the same compound, the “Cholesterol-free media + simvastatin (0.04 μM)” value [2, 20] was 0.8483, the “Complete Media” value [2, 21] was 0.5782 and the Difference [2, 7] was −0.27.

For COc1ccc2c(c1)c(CC(=O)O)c(C)n2C(=O)c1ccc(Cl)cc1 [Indomethacin (sodium hydrate)], the Cholesterol-free [1, 4] was 1.164, the Complete ([1]; NCI-H292 cells, complete media) was 0.8005 and the Difference ([1]; complete vs cholesterol-free media, greater than 0 enhanced anti-cancer activity, about 0 neutral, below 0 antagonists) was −0.36. The “Cholesterol-free media + simvastatin (0.04 μM)” value [2, 11] was 0.9744, the “Complete Media” value [2, 12] was 0.911 and the Difference [2, 13] was −0.06.

For COc1ccc2c(c1)c(CC(=O)O)c(C)n2C(=O)c1ccc(Cl)cc1 [Indomethacin], the Difference [1, 8] was −0.82, the Cholesterol-free [1, 9] was 1.574 and the Complete [1, 10] was 0.7546. The “Cholesterol-free media + simvastatin (0.04 μM)” value [2, 5] was 1.269, the “Complete Media” value [2, 6] was 1.474 and the Difference [2, 17] was 0.20.

C/C=C(/C)C(=O)O[C@H]1C(C)=C[C@]23C(=O)[C@@H](C=C(CO)[C@@H](O)[C@]12O)[C@H]1[C@@H](C[C@H]3C)C1(C)C [Ingenol Mebutate] showed a Cholesterol-free [1, 4] of 0.6991, a Complete ([1]; NCI-H292 cells, complete media) of 0.3918 and a Difference ([1]; complete vs cholesterol-free media, […]) of −0.31. For the same compound, the “Cholesterol-free media + simvastatin (0.04 μM)” value ([2]; NCI-H292 cells, cholesterol-free media with simvastatin 0.04 μM, […]) was 0.2962, the “Complete Media” value ([2]; NCI-H292 cells, complete media, […]) was 0.4169 and the Difference ([2]; complete media minus cholesterol-free media + simvastatin, […]) was 0.12.

For CC1=C[C@]23C(=O)[C@@H](C=C(CO)[C@@H](O)[C@]2(O)[C@H]1O)[C@H]1[C@@H](C[C@H]3C)C1(C)C [Ingenol], the Difference [1, 22] was −0.29, the Cholesterol-free [1, 4] was 0.932 and the Complete ([1]; NCI-H292 cells, complete media) was 0.6376. For the same compound, the “Cholesterol-free media + simvastatin (0.04 μM)” value [2, 5] was 1.056, the “Complete Media” value [2, 6] was 0.969 and the Difference [2, 23] was −0.09.

CC(=O)Nc1ccc(C(=O)O)cc1.CC(=O)Nc1ccc(C(=O)O)cc1.CC(=O)Nc1ccc(C(=O)O)cc1.CC(O)CN(C)C.CC(O)CN(C)C.CC(O)CN(C)C.O=c1[nH]cnc2c1ncn2[C@@H]1O[C@H](CO)[C@@H](O)[C@H]1O [Inosine pranobex] was tested, and the Difference [1, 22] was −0.24, the Cholesterol-free [1, 4] was 1.096 and the Complete ([1]; NCI-H292 cells, complete media) was 0.8599. The “Cholesterol-free media + simvastatin (0.04 μM)” value [2, 18] was 1.233, the “Complete Media” value [2, 19] was 0.9799 and the Difference [2, 23] was −0.25.

For O=c1[nH]cnc2c1ncn2[C@@H]1O[C@H](CO)[C@@H](O)[C@H]1O [Inosine], the Difference [1, 3] was 0.02, the Cholesterol-free [1, 14] was 0.9203 and the Complete [1, 15] was 0.941. For the same compound, the “Cholesterol-free media + simvastatin (0.04 μM)” value [2, 5] was 0.924, the “Complete Media” value [2, 6] was 1.085 and the Difference [2, 17] was 0.16.

In the case of O=C(CCCCC(=O)Nc1c(I)cc(I)c(C(=O)O)c1I)Nc1c(I)cc(I)c(C(=O)O)c1I [Iodipamide], the Difference [1, 24] is reported as −0.08, the Cholesterol-free [1, 25] is reported as 0.9527 and the Complete [1, 6] is reported as 0.876. The “Cholesterol-free media + simvastatin (0.04 μM)” value [2, 18] was 1.387, the “Complete Media” value [2, 19] was 1.135 and the Difference [2, 7] was −0.25.

CC(=O)N(CC(O)CN(C(C)=O)c1c(I)c(C(=O)NCC(O)CO)c(I)c(C(=O)NCC(O)CO)c1I)c1c(I)c(C(=O)NCC(O)CO)c(I)c(C(=O)NCC(O)CO)c1I (stereo not drawn) [Iodixanol] showed a Cholesterol-free [1, 14] of 0.9782, a Complete [1, 15] of 1.054 and a Difference [1, 16] of 0.08. For the same compound, the “Cholesterol-free media + simvastatin (0.04 μM)” value [2, 11] was 1.197, the “Complete Media” value [2, 12] was 1.164 and the Difference [2, 13] was −0.03.

With CC(=O)N(CC(O)CO)c1c(I)c(C(=O)NCC(O)CO)c(I)c(C(=O)NCC(O)CO)c1I (stereo not drawn) [Iohexol] the Difference [1, 24] was −0.14, the Cholesterol-free [1, 25] was 1.062 and the Complete [1, 6] was 0.9228. For the same compound, the “Cholesterol-free media + simvastatin (0.04 μM)” value [2, 20] was 1.632, the “Complete Media” value [2, 21] was 0.8317 and the Difference [2, 7] was −0.80.

C[C@H](O)C(=O)Nc1c(I)c(C(=O)NC(CO)CO)c(I)c(C(=O)NC(CO)CO)c1I [Iopamidol] showed a Difference [1, 24] of −0.15, a Cholesterol-free [1, 25] of 1.136 and a Complete [1, 6] of 0.9871. For the same compound, the “Cholesterol-free media + simvastatin (0.04 μM)” value [2, 20] was 1.516, the “Complete Media” value [2, 21] was 1.092 and the Difference [2, 7] was −0.42.

In the case of CCC(Cc1c(I)cc(I)c(N)c1I)C(=O)O (stereo not drawn) [Iopanoic acid], the Difference [1, 24] is reported as −0.10, the Cholesterol-free [1, 25] is reported as 1.02 and the Complete [1, 6] is reported as 0.9191. For the same compound, the “Cholesterol-free media + simvastatin (0.04 μM)” value [2, 5] was 1.115, the “Complete Media” value [2, 6] was 1.353 and the Difference [2, 17] was 0.24.

COCC(=O)Nc1c(I)c(C(=O)NCC(O)CO)c(I)c(C(=O)N(C)CC(O)CO)c1I (stereo not drawn) [Iopromide] was tested, and the Cholesterol-free [1, 14] was 0.9462, the Complete [1, 15] was 1.578 and the Difference [1, 16] was 0.63. The “Cholesterol-free media + simvastatin (0.04 μM)” value [2, 11] was 0.8199, the “Complete Media” value [2, 12] was 0.7955 and the Difference [2, 13] was −0.02.

CNC(=O)c1c(I)c(NC(C)=O)c(I)c(C(=O)O)c1I [Iotalamic acid] showed a Difference [1, 3] of −0.29, a Cholesterol-free [1, 4] of 1.385 and a Complete ([1]; NCI-H292 cells, complete media) of 1.091. For the same compound, the “Cholesterol-free media + simvastatin (0.04 μM)” value [2, 20] was 1.459, the “Complete Media” value [2, 21] was 0.9854 and the Difference [2, 7] was −0.47.

O=C(NCC(O)CO)c1c(I)c(C(=O)NCC(O)CO)c(I)c(N(CCO)C(=O)CO)c1I (stereo not drawn) [Ioversol] was tested, and the Difference [1, 24] was −0.10, the Cholesterol-free [1, 25] was 1.162 and the Complete [1, 6] was 1.064. The “Cholesterol-free media + simvastatin (0.04 μM)” value [2, 26] was 1.012, the “Complete Media” value [2, 27] was 1.097 and the Difference [2, 17] was 0.09.

For CC(=O)N(CC(O)CO)c1c(I)c(C(=O)NCCO)c(I)c(C(=O)NCC(O)CO)c1I (stereo not drawn) [Ioxilan], the Difference [1, 3] was 0.04, the Cholesterol-free [1, 14] was 1.015 and the Complete [1, 15] was 1.05. For the same compound, the “Cholesterol-free media + simvastatin (0.04 μM)” value [2, 20] was 1.221, the “Complete Media” value [2, 21] was 0.868 and the Difference [2, 7] was −0.35.

OC[C@H]1O[C@@H](c2ccc(F)c(Cc3cc4ccccc4s3)c2)[C@H](O)[C@@H](O)[C@@H]1O [Ipragliflozin] gave a Difference [1, 8] of −0.87, a Cholesterol-free [1, 9] of 1.769 and a Complete [1, 10] of 0.8999. For the same compound, the “Cholesterol-free media + simvastatin (0.04 μM)” value [2, 26] was 0.8889, the “Complete Media” value [2, 27] was 0.9547 and the Difference [2, 17] was 0.07.
